{
  "source": "patent US9439982B2",
  "about": "“Fluorescent cyanine-polyamine derivatives as a diagnostic probe” (PIERRE FABRE MEDICAMENT, priority 2010, dated 2016)",
  "key": {"[1]": {"tested_on": "B16/F10-Luc mouse melanoma cells", "test": "In vivo detection by fluorescence imaging of the probe accumulating in a tumour on an animal", "details": "for Tumour fixation: Fluorescence at t = 24 hrs: individual mice, 24 hrs post-injection, subcutaneous B16/F10-Luc tumour in C57B16 mice; for Tumour fixation: Mean fluorescence: 24 hrs; for Detection of the probe's fluorescence in the tumour in vivo: tumour B16F10 in mice, fluorescence imaging after intravenous injection", "procedure": "(§1) 6 healthy male C57B16 mice, aged 11 weeks, were used to evaluate the tolerance of the injection of increasing doses of the probe of example 7 (F98942) (25, 50 and 100 μg). 11 male C57B16 mice aged 10 weeks were grafted subcutaneously on the right rear paw with 2.5.10^5 B16/F10-Luc mouse melanoma cells.\n(§2) The probe F98942 is placed in solution in sterile 5% glucose serum extemporaneously.\nThe mice were injected with 50 μg or 25 μg of F98942 or PBS (Phosphate Buffered Saline) intravenously. They were then anaesthetised by isoflurane gas inhalation (3% isoflurane/oxygen) prior to the fluorescence imaging examination 24 and 48 hours post-injection. After 48 hours, the tumours were removed and analysed by means of fluorescence imaging. […]"}, "[2]": {"test": "Tolerance of the injection of increasing doses of the probe in healthy mice", "type": "in vivo", "details": "healthy male C57B16 mice, 25, 50 and 100 μg", "procedure": "as §1, §2"}},
  "note": "Where “and” joins values, the source holds several entries; their conditions need not be identical. Identical values can stand only once.",
  "data": [
    {"smiles": "CCCCN1/C(=C/C=C/C=C/C=C/C2=[N+](CCCCCC(=O)NCCCNCCCCNCCCN)c3ccccc3C2(C)C)C(C)(C)c2ccccc21.[Br-]", "note": "[Example F98942, 1-(5-{3-[4-(3-aminopropylamino)butylamino]-propylcarbamoyl}-pentyl)-2-{(1E,3E,5E)-7-[1-butyl-3,3-dimethyl-1,3-dihydroindol-(2E)-ylidene]-hepta-1,3,5-trienyl}-3,3-dimethyl-3H-indolium bromide]", "values": [
      {"measurement": "Tumour fixation: Fluorescence at t = 24 hrs", "setting": "[1]; 25 μg intravenously", "result": "1.52 · 10^7 [p/s/cm^2/sr]/[μW/cm^2] and 2.10 · 10^7 [p/s/cm^2/sr]/[μW/cm^2]"},
      {"measurement": "Tumour fixation: Fluorescence at t = 24 hrs", "setting": "[1]; 50 μg intravenously", "result": "3.22 · 10^7 [p/s/cm^2/sr]/[μW/cm^2] and 3.08 · 10^7 [p/s/cm^2/sr]/[μW/cm^2] and 3.12 · 10^7 [p/s/cm^2/sr]/[μW/cm^2] and 3.01 · 10^7 [p/s/cm^2/sr]/[μW/cm^2]"},
      {"measurement": "Tumour fixation: Mean fluorescence", "setting": "[1]; mean of mice 1-4, 50 μg intravenously", "result": "3.14 · 10^7 [p/s/cm^2/sr]/[μW/cm^2]"},
      {"measurement": "Tumour fixation: Mean fluorescence", "setting": "[1]; mean of mice 5-6, 25 μg intravenously", "result": "1.81 · 10^7 [p/s/cm^2/sr]/[μW/cm^2]"},
      {"measurement": "Detection of the probe's fluorescence in the tumour in vivo", "setting": "[1]", "result": "detected"},
      {"measurement": "Tolerance of injection", "setting": "[2]", "result": "well-tolerated regardless of the dose"}
    ]},
    {"smiles": "CC1(C)C(/C=C/C2=C(c3ccc(C(=O)NCCCNCCCCNCCCN)cc3)C(=C/C=C3/N(CCCCS(=O)(=O)O)c4ccc5ccccc5c4C3(C)C)/CCC2)=[N+](CCCCS(=O)(=O)[O-])c2ccc3ccccc3c21", "note": "[comparative probe, reference compound]", "values": [
      {"measurement": "Detection of the probe's fluorescence in the tumour in vivo", "setting": "[1]", "result": "not detected"}
    ]}
  ]
}
